The source made the active and inactive calls. The rule behind the calls is not given here.
Columns and labels:
[1] = target: Serine/threonine-protein kinase PLK3 (Homo sapiens) (UniProt Q9H4B4); assay: Inhibition of Plk3 (unknown origin) at 1 uM in presence of ATP relative to control; values are per cent of control
[2] = target: Protein kinase C zeta type (Homo sapiens) (UniProt Q05513); assay: Inhibition of PKCzeta (unknown origin) at 1 uM in presence of ATP relative to control; values are per cent of control
Protein kinase C zeta type (Homo sapiens), sequence (Q05513 whole entry): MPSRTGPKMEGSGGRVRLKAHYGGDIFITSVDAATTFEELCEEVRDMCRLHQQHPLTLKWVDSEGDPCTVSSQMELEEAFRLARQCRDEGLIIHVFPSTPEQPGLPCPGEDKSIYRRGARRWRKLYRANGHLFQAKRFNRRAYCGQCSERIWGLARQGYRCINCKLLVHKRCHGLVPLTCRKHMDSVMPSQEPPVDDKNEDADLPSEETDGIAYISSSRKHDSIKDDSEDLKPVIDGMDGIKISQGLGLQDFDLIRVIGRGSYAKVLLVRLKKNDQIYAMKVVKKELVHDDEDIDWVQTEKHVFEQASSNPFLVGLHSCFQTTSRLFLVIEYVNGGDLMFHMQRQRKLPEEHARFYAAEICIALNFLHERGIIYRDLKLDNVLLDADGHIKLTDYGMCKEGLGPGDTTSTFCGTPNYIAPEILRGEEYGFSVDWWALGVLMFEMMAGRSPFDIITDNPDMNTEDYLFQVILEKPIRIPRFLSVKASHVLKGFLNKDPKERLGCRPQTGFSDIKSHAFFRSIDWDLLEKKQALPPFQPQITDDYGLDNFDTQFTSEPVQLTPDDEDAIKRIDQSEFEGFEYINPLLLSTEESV

[3] = target: Tyrosine-protein kinase SYK (Homo sapiens) (UniProt P43405); assay: Inhibition of Syk (unknown origin) at 1 uM in presence of ATP relative to control; values are per cent of control
[4] = target: Receptor-type tyrosine-protein kinase FLT3 (Homo sapiens) (UniProt P36888); assay: Inhibition of FLt3 (unknown origin) at 1 uM in presence of ATP relative to control; values are per cent of control
[5] = test system: COR-L105; assay: Inhibition of cell proliferation in human COR-L105 cells upto 10 umol/L incubated for 72 hrs by DAPI staining based analysis; format: functional; conditions: dose <= 10.0 µmol/L
[6] = target: Fibroblast growth factor receptor 2 (Homo sapiens) (UniProt P21802); assay: Inhibition of FGFR2 (unknown origin) at 1 uM in presence of ATP relative to control; values are per cent of control
[7] = target: Interleukin-1 receptor-associated kinase 1 (Homo sapiens) (UniProt P51617); assay: Inhibition of IRAK1 (unknown origin) at 1 uM in presence of ATP relative to control; values are per cent of control
Interleukin-1 receptor-associated kinase 1 (Homo sapiens), sequence (P51617 whole entry, looked up): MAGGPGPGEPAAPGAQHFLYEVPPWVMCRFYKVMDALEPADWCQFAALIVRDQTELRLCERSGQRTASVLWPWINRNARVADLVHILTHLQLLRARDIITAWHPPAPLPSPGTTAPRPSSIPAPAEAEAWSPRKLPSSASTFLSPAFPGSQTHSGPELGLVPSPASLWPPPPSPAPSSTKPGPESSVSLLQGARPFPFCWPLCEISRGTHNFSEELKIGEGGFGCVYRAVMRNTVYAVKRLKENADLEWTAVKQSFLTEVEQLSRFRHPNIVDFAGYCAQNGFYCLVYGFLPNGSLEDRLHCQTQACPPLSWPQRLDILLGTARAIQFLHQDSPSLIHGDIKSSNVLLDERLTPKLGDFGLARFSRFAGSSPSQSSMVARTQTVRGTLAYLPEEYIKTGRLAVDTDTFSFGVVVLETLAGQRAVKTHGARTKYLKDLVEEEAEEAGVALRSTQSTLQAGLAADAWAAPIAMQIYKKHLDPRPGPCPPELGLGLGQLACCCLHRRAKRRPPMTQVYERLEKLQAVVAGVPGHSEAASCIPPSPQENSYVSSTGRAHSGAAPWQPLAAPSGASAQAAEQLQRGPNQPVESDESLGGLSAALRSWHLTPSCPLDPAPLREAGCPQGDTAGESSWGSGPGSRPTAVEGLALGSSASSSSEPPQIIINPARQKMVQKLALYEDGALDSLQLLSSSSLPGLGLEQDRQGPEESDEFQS

[8] = test system: NCI-H441; assay: Inhibition of cell proliferation in human NCI-H441 cells upto 10 umol/L incubated for 72 hrs by DAPI staining based analysis; format: functional; conditions: dose <= 10.0 µmol/L
[9] = Cmax in pediatric patient with recurrent ETV6-NTRK3-rearranged infantile fibrosarcoma at 60 mg administered twice a day as liquid formulation for 8 day by LC-MS/MS analysis; format: ADME; conditions: human, in vivo
[10] = Inhibition of human extracellular domain deleted TRKA V573M mutant expressed in mouse NIH3T3 cells assessed as reduction in TRKA phosphorylation incubated for 1 hrs by ELISA; format: cell-based; conditions: NIH3T3, 1 h
[11] = target: Ribosomal protein S6 kinase alpha-3 (Homo sapiens) (UniProt P51812); assay: Inhibition of Rsk2 (unknown origin) at 1 uM in presence of ATP relative to control; values are per cent of control
[12] = test system: Caov-3 cell line; assay: Inhibition of cell proliferation in human Caov-3 cells upto 10 umol/L incubated for 72 hrs by DAPI staining based analysis; format: functional; conditions: dose <= 10.0 µmol/L
[13] = target: Rhodopsin kinase GRK7 (Homo sapiens) (UniProt Q8WTQ7); assay: Inhibition of GRK7 (unknown origin) at 1 uM in presence of ATP relative to control; values are per cent of control
Rhodopsin kinase GRK7 (Homo sapiens), sequence (Q8WTQ7 whole entry): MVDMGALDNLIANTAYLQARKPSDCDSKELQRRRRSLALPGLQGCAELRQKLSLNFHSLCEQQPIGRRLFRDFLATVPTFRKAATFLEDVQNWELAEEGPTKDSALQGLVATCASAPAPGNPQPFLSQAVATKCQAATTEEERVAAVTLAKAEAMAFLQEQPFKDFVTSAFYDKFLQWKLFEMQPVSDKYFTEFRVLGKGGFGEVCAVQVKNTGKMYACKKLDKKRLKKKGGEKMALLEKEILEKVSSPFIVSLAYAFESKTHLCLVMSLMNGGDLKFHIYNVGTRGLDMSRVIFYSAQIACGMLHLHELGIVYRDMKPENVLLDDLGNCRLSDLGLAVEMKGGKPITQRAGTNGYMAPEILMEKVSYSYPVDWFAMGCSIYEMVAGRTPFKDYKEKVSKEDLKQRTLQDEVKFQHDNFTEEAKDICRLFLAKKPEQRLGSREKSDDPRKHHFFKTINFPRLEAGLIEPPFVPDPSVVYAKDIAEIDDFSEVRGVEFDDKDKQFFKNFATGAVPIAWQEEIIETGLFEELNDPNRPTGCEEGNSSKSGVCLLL

[14] = test system: L-428; assay: Inhibition of cell proliferation in human L428 cells upto 10 umol/L incubated for 72 hrs by DAPI staining based analysis; format: functional; conditions: dose <= 10.0 µmol/L
[15] = target: Tyrosine-protein kinase JAK3 (Homo sapiens) (UniProt P52333); assay: Inhibition of JAK3 (unknown origin) at 1 uM in presence of ATP relative to control; values are per cent of control
[16] = target: Mitogen-activated protein kinase kinase kinase 5 (Homo sapiens) (UniProt Q99683); assay: Inhibition of MAP3K5 (unknown origin) at 1 uM in presence of ATP relative to control; values are per cent of control
[17] = target: Tyrosine-protein kinase Blk (Homo sapiens) (UniProt P51451); assay: Inhibition of BLK (unknown origin) at 1 uM in presence of ATP relative to control; values are per cent of control
Tyrosine-protein kinase Blk (Homo sapiens), sequence (P51451 2-505 limits assumed): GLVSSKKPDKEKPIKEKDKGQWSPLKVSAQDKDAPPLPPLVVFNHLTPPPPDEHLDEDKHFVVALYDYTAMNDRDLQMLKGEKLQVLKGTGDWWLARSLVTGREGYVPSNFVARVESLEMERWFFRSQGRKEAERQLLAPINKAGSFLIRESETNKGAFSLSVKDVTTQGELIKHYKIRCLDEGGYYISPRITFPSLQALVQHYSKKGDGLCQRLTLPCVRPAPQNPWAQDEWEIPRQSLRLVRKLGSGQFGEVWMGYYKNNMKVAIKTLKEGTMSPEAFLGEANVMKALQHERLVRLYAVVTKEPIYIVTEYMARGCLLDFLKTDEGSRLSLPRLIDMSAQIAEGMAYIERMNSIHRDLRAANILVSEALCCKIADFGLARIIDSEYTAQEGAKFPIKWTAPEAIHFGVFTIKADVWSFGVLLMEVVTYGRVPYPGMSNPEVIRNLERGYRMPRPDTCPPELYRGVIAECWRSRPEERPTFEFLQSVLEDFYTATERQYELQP

[18] = target: FKBP12A/mTOR (Homo sapiens) (UniProt P62942+P42345); assay: Inhibition of mTOR/FKBP12 (unknown origin) at 1 uM in presence of ATP relative to control; values are per cent of control
FKBP12A/mTOR (Homo sapiens), sequence (P62942 2-108 limits assumed, other chains not shown): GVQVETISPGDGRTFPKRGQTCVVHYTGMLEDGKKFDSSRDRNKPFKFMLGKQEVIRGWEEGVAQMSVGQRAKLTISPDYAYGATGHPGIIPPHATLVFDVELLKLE

[19] = target: Misshapen-like kinase 1 (Homo sapiens) (UniProt Q8N4C8); assay: Inhibition of MINK (unknown origin) at 1 uM in presence of ATP relative to control; values are per cent of control
[20] = target: Focal adhesion kinase 1 (Homo sapiens) (UniProt Q05397); assay: Inhibition of FAK (unknown origin) at 1 uM in presence of ATP relative to control; values are per cent of control
[21] = test system: U138-MG; assay: Inhibition of cell proliferation in human U138-MG cells upto 10 umol/L incubated for 72 hrs by DAPI staining based analysis; format: functional; conditions: dose <= 10.0 µmol/L
[22] = species on record: Homo sapiens; assay: Inhibition of MKK4_m (unknown origin) at 1 uM in presence of ATP relative to control; values are per cent of control
[23] = Inhibition of N-terminal 3FLAG-tagged ETV6-TRKC G696A mutant (unknown origin) expressed in NIH3T3 cells assessed as ERK1/2 phosphorylation incubated for 1 hrs by flow cytometric analysis; format: cell-based, Homo sapiens
[24] = Cmin in pediatric patient with recurrent ETV6-NTRK3-rearranged infantile fibrosarcoma at 60 mg administered twice a day as liquid formulation for 29 day and measured 12 hrs post dose by LC-MS/MS analysis; format: ADME; conditions: human, in vivo, read-out: Cmin
[25] = target: Ribosomal protein S6 kinase alpha-1 (Homo sapiens) (UniProt Q15418); assay: Inhibition of Rsk1 (unknown origin) at 1 uM in presence of ATP relative to control; values are per cent of control
Ribosomal protein S6 kinase alpha-1 (Homo sapiens), sequence (Q15418 whole entry): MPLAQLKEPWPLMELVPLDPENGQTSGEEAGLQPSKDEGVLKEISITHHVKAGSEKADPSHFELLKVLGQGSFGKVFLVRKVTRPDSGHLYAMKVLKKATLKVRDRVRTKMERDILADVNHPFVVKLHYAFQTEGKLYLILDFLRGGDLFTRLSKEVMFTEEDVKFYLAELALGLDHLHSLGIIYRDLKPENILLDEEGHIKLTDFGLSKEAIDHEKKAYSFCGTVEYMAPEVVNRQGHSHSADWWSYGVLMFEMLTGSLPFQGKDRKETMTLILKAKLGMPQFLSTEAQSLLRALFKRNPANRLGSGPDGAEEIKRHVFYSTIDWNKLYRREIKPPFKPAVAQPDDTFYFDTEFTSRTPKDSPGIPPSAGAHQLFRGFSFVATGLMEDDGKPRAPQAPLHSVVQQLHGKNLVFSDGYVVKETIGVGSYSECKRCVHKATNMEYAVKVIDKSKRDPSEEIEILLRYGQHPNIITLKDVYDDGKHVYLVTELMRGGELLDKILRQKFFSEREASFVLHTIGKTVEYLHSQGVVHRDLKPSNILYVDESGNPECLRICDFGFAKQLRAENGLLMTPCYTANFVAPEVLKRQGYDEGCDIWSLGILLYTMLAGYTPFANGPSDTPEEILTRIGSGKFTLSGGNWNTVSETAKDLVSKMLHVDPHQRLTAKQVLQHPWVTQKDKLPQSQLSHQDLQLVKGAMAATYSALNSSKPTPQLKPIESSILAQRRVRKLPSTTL

[26] = target: Tyrosine-protein kinase Fes/Fps (Homo sapiens) (UniProt P07332); assay: Inhibition of Fes (unknown origin) at 1 uM in presence of ATP relative to control; values are per cent of control
Tyrosine-protein kinase Fes/Fps (Homo sapiens), sequence (P07332 whole entry): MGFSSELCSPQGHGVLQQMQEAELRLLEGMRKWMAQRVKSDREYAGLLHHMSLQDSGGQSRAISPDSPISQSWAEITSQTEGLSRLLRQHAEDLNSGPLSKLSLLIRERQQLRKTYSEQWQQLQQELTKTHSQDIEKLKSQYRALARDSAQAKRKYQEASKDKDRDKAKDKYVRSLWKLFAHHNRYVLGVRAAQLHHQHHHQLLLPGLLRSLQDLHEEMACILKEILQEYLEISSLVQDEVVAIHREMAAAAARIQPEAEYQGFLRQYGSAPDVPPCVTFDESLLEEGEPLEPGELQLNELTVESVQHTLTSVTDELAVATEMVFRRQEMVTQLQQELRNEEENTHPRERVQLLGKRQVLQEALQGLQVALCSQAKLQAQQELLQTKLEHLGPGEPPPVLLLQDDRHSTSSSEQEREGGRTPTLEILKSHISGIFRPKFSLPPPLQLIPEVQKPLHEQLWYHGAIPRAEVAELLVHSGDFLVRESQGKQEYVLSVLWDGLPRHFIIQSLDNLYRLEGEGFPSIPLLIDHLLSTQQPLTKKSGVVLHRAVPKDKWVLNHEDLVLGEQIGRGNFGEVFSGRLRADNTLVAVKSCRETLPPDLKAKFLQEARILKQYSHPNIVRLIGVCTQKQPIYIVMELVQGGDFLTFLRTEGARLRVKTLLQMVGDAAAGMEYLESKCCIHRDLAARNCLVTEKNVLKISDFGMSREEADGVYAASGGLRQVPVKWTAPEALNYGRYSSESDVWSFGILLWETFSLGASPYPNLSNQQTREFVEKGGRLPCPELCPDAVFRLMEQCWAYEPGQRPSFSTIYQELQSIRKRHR

[27] = target: Dual specificity mitogen-activated protein kinase kinase 1 (Homo sapiens) (UniProt Q02750); assay: Inhibition of MEK1 (unknown origin) at 1 uM in presence of ATP relative to control; values are per cent of control
[28] = target: Calcium/calmodulin-dependent protein kinase type IV (Homo sapiens) (UniProt Q16566); assay: Inhibition of CAMK4 (unknown origin) at 1 uM in presence of ATP relative to control; values are per cent of control

Serine/threonine-protein kinase PLK3 (Homo sapiens), sequence (Q9H4B4 whole entry, looked up): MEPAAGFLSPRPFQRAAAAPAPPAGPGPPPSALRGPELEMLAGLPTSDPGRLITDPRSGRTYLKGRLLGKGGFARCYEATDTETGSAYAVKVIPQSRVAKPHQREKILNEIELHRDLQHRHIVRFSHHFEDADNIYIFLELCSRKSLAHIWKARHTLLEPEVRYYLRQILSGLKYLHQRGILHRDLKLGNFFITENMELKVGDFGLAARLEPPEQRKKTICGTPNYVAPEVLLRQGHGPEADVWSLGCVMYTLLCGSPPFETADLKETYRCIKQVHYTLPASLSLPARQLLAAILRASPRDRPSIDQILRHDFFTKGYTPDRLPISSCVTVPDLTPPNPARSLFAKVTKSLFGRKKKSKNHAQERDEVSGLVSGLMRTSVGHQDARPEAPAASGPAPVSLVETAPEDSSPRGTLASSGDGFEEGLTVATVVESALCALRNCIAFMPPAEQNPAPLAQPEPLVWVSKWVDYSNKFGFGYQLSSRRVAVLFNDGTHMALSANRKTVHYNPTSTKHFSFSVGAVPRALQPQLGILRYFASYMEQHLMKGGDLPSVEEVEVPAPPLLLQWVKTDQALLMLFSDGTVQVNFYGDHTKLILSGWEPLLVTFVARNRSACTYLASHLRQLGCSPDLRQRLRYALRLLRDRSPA

For C[C@@H]1CCc2ncc(F)cc2[C@H]2CCCN2c2ccn3ncc(c3n2)C(=O)N1 [SELITRECTINIB], the residual activity [1] was 93.5%, the residual activity [2] was 106% and the residual activity [3] was 114%. For the same molecule, the residual activity [4] was 85.5%, the inhibition [5] was “inactive” and the residual activity [6] was 96.5%. The residual activity [7] was 106%, the inhibition [8] was “inactive” and the Cmax [9] was 415 ng/mL. The IC50 [10] was 0.029 µM, the residual activity [11] was 134% and the inhibition [12] was “inactive”. For the same molecule, the residual activity [13] was 70.5%, the inhibition [14] was “inactive” and the residual activity [15] was 103%. The residual activity [16] was 106%, the residual activity [17] was 108% and the residual activity [18] was 102%. The residual activity [19] was 99.5%, the residual activity [20] was 81% and the inhibition [21] was “inactive”. For the same molecule, the residual activity [22] was 108%, the IC50 [23] was 0.0175 µM and the concentration at 708 h [24] was 12 ng/mL. The residual activity [25] was 109%, the residual activity [26] was 99.5% and the residual activity [27] was 122%. It also gave a residual activity [28] of 118%.
